# Measured values: patent US4061645A, “2-Trichloromethyl-5-methylsulfinyl-1,3,4-thiadiazole” (Schering Aktiengesellschaft, priority 1972, dated 1977)
# Test system: Rhizoctonia solani
# Assay: Limit concentration of soil-fungicidal effectiveness, Rhizoctonia solani, infested soil seeded with peas (Example 1)
# Assay type: in vivo
# Conditions: soil, 480 h, 20 to 23 days, 22°-25° C, read-out: Limit concentration of the fungicidal effectiveness
# Description: Limit concentrations of the soil-fungicidal effectiveness at homogeneous mixture of the products with the infested soil. Basic condition in the evaluation are a sound root formation without fungus necroses and germination of the seed of at least 90% compared with the result obtained in steamed soil. Per concentration there were seeded 25 grains of peas of the variety "Miracle of Kelvedon" (marrow pea) without a waiting period. The cultivation time in the tests was 20 to 23 days at a temperature of 22°-25° C. Four commercial products were included in the test series.
# Rhizoctania solani: -- Steamed compost soil was inoculated with mycelium of Rhizoctonia solani.
row,Structure (SMILES),minimal effective concentration [µg/mL]
1,"CCS(=O)(=O)c1nnc(C(F)(F)F)s1 [Compound 40, 2-trifluoromethyl-5-ethylsulfonyl-1,3,4-thiadiazole]",20
2,"CCCCCC[S+]([O-])c1nnc(C(F)(F)F)s1 (centres unmarked) [Compound 39, 2-trifluoromethyl-5-hexylsulfinyl-1,3,4-thiadiazole]",40
3,"CC(C)S(=O)(=O)c1nnc(C(Cl)Cl)s1 [Compound 20, 2-dichloromethyl-5-isopropylsulfonyl-1,3,4-thiadiazole]",50
4,"CC(C)CS(=O)(=O)c1nnc(C(F)(F)F)s1 [Compound 42, 2-trifluoromethyl-5-isobutylsulfonyl-1,3,4-thiadiazole]",100
5,"CC(C)[S+]([O-])c1nnc(C(Cl)(Cl)Cl)s1 (centres unmarked) [Compound 11, 2-trichloromethyl-5-isopropylsulfinyl-1,3,4-thiadiazole]",50
6,"CC(C)[S+]([O-])c1nnc(C(Cl)Cl)s1 (centres unmarked) [Compound 6, 2-dichloromethyl-5-isopropylsulfinyl-1,3,4-thiadiazole]",50
7,"CC[S+]([O-])c1nnc(C(F)(F)F)s1 (centres unmarked) [Compound 36, 2-trifluoromethyl-5-ethylsulfinyl-1,3,4-thiadiazole]",20
8,"C[S+]([O-])c1nnc(C(F)(F)F)s1 (centres unmarked) [Compound 35, 2-trifluoromethyl-5-methylsulfinyl-1,3,4-thiadiazole]",20
9,"CCCCCCS(=O)(=O)c1nnc(C(F)(F)F)s1 [Compound 43, 2-trifluoromethyl-5-hexylsulfonyl-1,3,4-thiadiazole]",50
10,"CS(=O)(=O)c1nnc(CCl)s1 [Compound 15, 2-chloromethyl-5-methylsulfonyl-1,3,4-thiadiazole]",100
11,"CCS(=O)(=O)c1nnc(CBr)s1 [Compound 31, 2-bromomethyl-5-ethylsulfonyl-1,3,4-thiadiazole]",> 200
12,"CC(C)C[S+]([O-])c1nnc(C(F)(F)F)s1 (centres unmarked) [Compound 37, 2-trifluoromethyl-5-isobutylsulfinyl-1,3,4-thiadiazole]",100
13,"CC(C)S(=O)(=O)c1nnc(CCl)s1 [Compound 16, 2-chloromethyl-5-isopropylsulfonyl-1,3,4-thiadiazole]",200
14,"CCCCCCCC[S+]([O-])c1nnc(C(Cl)(Cl)Cl)s1 (centres unmarked) [Compound 14, 2-trichloromethyl-5-octylsulfinyl-1,3,4-thiadiazole]",100
15,"CS(=O)(=O)c1nnc(C(F)(F)C(F)(F)F)s1 [Compound 45, 2-pentafluoroethyl-5-methylsulfonyl-1,3,4-thiadiazole]",> 100
16,"CC(C)S(=O)(=O)c1nnc(C(F)(F)F)s1 [Compound 41, 2-trifluoromethyl-5-isopropylsulfonyl-1,3,4-thiadiazole]",20

# Same assay, conditions: soil, 480 h, read-out: Limit concentration of the fungicidal effectiveness
row,Structure (SMILES),minimal effective concentration [µg/mL]
1,"O=C1C2CC=CCC2C(=O)N1SC(Cl)(Cl)Cl (centres unmarked) [N-(trichloromethylthio)-cyclohex-4-ene-1,2-dicarboximide, reference compound]",300
2,"CS(=O)(=O)c1nnc(C(F)(F)C(F)(F)C(F)(F)F)s1 [Compound 46, 2-heptafluoropropyl-5-methylsulfonyl-1,3,4-thiadiazole]",100

# Test system: Pythium ultimum
# Assay: Pythium ultimum infested compost soil, marrow peas (Example 2)
# Assay type: in vivo
# Conditions: 10 mg active ingr. per liter of soil; 3 weeks
# Source text: Steamed compost soil was inoculated with mycelium of Pythium ultimum.
row,Structure (SMILES),Weight of fresh plant [g]
1,"CS(=O)(=O)c1nnc(CCl)s1 [Compound 15, 2-chloromethyl-5-methylsulfonyl-1,3,4-thiadiazole]",20

# Same assay, conditions: 10 mg active ingr. per liter of soil; of 25 grains
row,Structure (SMILES),Number of sound peas after 3 wks.
1,"CS(=O)(=O)c1nnc(CCl)s1 [Compound 15, 2-chloromethyl-5-methylsulfonyl-1,3,4-thiadiazole]",22

# Same assay, conditions: 20 mg active ingr. per liter of soil; 3 weeks
row,Structure (SMILES),Weight of fresh plant [g]
1,"CS(=O)(=O)c1nnc(CCl)s1 [Compound 15, 2-chloromethyl-5-methylsulfonyl-1,3,4-thiadiazole]",20

# Same assay, conditions: 20 mg active ingr. per liter of soil; of 25 grains
row,Structure (SMILES),Number of sound peas after 3 wks.
1,"CS(=O)(=O)c1nnc(CCl)s1 [Compound 15, 2-chloromethyl-5-methylsulfonyl-1,3,4-thiadiazole]",23

# Same assay, conditions: 30 mg active ingr. per liter of soil; 3 weeks
row,Structure (SMILES),Weight of fresh plant [g]
1,"CS(=O)(=O)c1nnc(CCl)s1 [Compound 15, 2-chloromethyl-5-methylsulfonyl-1,3,4-thiadiazole]",20

# Same assay, conditions: 30 mg active ingr. per liter of soil; of 25 grains
row,Structure (SMILES),Number of sound peas after 3 wks.
1,"CS(=O)(=O)c1nnc(CCl)s1 [Compound 15, 2-chloromethyl-5-methylsulfonyl-1,3,4-thiadiazole]",24

# Same assay, conditions: 200 mg active ingr. per liter of soil; 3 weeks
row,Structure (SMILES),Weight of fresh plant [g]
1,"O=C1C2CC=CCC2C(=O)N1SC(Cl)(Cl)Cl (centres unmarked) [N-(trichloromethylthio)-cyclohex-4-ene-1,2-dicarboximide, reference compound]",6

# Same assay, conditions: 200 mg active ingr. per liter of soil; of 25 grains
row,Structure (SMILES),Number of sound peas after 3 wks.
1,"O=C1C2CC=CCC2C(=O)N1SC(Cl)(Cl)Cl (centres unmarked) [N-(trichloromethylthio)-cyclohex-4-ene-1,2-dicarboximide, reference compound]",13

# Test system: Fusarium oxysporum f. callistephi
# Assay: Fusarium infested compost soil, Callistephus chinesis seedlings (Example 5)
# Assay type: in vivo
# Conditions: 50 mg active ingredient per liter of soil; of 4 seedlings
# Source text: Steamed compost soil was inoculated with a spore suspension of Fusarium oxysporum f. callistephi. After homogeneous mixture of the products with the infested soil, the products were present as 20% powder preparations, and after a waiting period of 8 days, there were set out per concentration 4 seedlings of Callistephus chinesis, master aster "Sun Ray" as host plants.
row,Structure (SMILES),Number of attacked plants after 3 weeks
1,"O=C1C2CC=CCC2C(=O)N1SC(Cl)(Cl)Cl (centres unmarked) [N-(trichloromethylthio)-cyclohex-4-ene-1,2-dicarboximide, reference compound]",4

# Same assay, conditions: 100 mg active ingredient per liter of soil; of 4 seedlings
row,Structure (SMILES),Number of attacked plants after 3 weeks
1,"O=C1C2CC=CCC2C(=O)N1SC(Cl)(Cl)Cl (centres unmarked) [N-(trichloromethylthio)-cyclohex-4-ene-1,2-dicarboximide, reference compound]",4

# Same assay, conditions: 200 mg active ingredient per liter of soil; of 4 seedlings
row,Structure (SMILES),Number of attacked plants after 3 weeks
1,"O=C1C2CC=CCC2C(=O)N1SC(Cl)(Cl)Cl (centres unmarked) [N-(trichloromethylthio)-cyclohex-4-ene-1,2-dicarboximide, reference compound]",4
